The values that follow come from publication PMC9708767, “Synthesis of Polymer Precursor 12-Oxododecenoic Acid Utilizing Recombinant Papaya Hydroperoxide Lyase in an Enzyme Cascade” (Applied Biochemistry and Biotechnology, 2022).

The term Km denotes the concentration of substrate that gives half-maximal velocity. As a reminder, the stoichiometry N is a count of units in the complex or per binding partner.

One assay deals with HPLCP-N (Carica papaya, UniProt Z9RAA0G2V7). In words: photometric, decrease at […] nm, nonlinear regression. The conditions noted are these: 50 mM potassium phosphate pH 6, 1 M NaCl, 22 °C; 5-100 µM substrate; affinity-enriched enzyme. Type of assay: biochemical.
Sequence of HPLCP-N (Z9RAA0G2V7 36-496 limits assumed): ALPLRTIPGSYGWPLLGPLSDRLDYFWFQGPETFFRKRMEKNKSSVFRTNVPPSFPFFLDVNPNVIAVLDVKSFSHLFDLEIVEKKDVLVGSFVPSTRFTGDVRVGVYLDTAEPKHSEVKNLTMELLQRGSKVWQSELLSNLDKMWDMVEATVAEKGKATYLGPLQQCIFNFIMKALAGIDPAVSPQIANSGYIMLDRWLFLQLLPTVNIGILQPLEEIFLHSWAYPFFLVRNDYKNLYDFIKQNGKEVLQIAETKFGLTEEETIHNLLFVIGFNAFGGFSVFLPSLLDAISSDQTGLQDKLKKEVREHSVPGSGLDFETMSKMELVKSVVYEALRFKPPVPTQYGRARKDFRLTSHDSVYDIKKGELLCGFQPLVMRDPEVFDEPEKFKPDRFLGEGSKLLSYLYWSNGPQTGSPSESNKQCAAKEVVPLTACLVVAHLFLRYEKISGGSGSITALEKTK
Assay [1] concerns the target N-terminally truncated hydroperoxide lyase from Carica papaya (HPL_(CP-N)) (Carica papaya). In words: SEC; Superdex 200 Increase 10/300; 50 mM potassium phosphate buffer pH 7 with 0.5 M NaCl and 0.1% Triton X-100; calibrated with gel filtration markers of 29,000 to 700,000 Da; calculated mass compared with the predicted monomer mass.

As for `CCCCC[C@@H](/C=C/C=C\CCCCCCCC(=O)O)OO` [13S-HPODE], the Michaelis constant (Km) on HPLCP-N stood at 140 ± 30 µM.
As to `CC/C=C\C[C@@H](/C=C/C=C\CCCCCCCC(=O)O)OO` [13S-HPOTE], the Km at HPLCP-N is 150 ± 40 µM.
On to “N-terminally truncated hydroperoxide lyase from Carica papaya (HPL_(CP-N)) (enzyme)”, for which, in assay [1], the stoichiometry N was 4.
